Reference: patent publication US20140024674A1, “TRPM5 INHIBITORS SUPPORT BODY WEIGHT REDUCTION WITHOUT REDUCING FOOD INTAKE” (NESTEC S.A., priority 2011, published 2014)
Entries after “also recorded” stand apart in the source; their conditions may differ.

Columns and labels:
[1] = Quinine-supplemented diet in wild type mice over 12 weeks: body weight, body composition (NMR), food intake; format: in vivo; details: for mean fat mass at the end of the trial: control 7.65 g±0.47
Experimental: Body composition was determined on […] mice by nuclear magnetic resonance (NMR) using an EchoMRI-900 Body Composition Analyzer (Echo Medical System, LLC, Houston, Tex., USA).
Three groups of wild type male C57BL6 mice 3 months old, 20 mice per group, were fed either a semi-synthetic (AlN) diet, or AlN diet with 0.1% quinine, or AlN diet with 0.01% quinine.
Body weight was measured weekly, body composition was measured monthly, food and fluid intake were measured twice a week over a period of 12 weeks.

Trpm5 = biological target: T1, Trpm5 (Mus musculus, UniProt Q9JJH7); details: Talayera et al, 2008, FASEB J.; cited from earlier work
T1 sequence (Q9JJH7 1-1158): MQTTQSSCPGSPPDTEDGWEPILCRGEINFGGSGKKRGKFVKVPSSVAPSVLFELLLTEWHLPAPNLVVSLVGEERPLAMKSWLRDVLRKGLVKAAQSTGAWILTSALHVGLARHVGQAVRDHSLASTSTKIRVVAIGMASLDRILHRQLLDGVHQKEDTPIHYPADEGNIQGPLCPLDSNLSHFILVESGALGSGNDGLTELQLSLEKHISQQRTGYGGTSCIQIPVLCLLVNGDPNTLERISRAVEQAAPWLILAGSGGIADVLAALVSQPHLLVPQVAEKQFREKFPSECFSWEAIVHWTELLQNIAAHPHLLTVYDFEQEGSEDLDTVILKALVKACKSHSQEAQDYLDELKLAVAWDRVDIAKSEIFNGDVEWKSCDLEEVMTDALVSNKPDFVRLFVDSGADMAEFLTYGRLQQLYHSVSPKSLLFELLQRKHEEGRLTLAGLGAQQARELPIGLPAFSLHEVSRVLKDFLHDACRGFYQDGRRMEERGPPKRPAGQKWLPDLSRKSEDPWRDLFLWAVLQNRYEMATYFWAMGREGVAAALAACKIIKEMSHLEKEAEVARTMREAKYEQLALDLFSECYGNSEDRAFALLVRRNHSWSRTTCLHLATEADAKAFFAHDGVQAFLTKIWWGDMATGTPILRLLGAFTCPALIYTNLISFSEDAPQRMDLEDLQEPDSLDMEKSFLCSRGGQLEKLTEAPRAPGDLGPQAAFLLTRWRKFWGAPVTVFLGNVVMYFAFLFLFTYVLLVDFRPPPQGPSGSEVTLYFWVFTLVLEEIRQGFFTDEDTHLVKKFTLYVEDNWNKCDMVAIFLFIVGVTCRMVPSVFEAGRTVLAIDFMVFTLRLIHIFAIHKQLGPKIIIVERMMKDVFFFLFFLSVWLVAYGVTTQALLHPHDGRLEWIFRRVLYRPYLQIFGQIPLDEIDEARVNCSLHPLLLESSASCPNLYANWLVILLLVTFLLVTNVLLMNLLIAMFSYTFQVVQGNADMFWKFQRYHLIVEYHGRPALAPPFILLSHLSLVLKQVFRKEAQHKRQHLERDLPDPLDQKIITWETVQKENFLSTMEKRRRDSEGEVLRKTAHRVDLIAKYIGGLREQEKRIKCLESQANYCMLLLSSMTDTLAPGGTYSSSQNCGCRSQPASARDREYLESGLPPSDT

## C=C[C@H]1CN2CC[C@H]1C[C@H]2[C@H](O)c1ccnc2ccc(OC)cc12 [quinine, (R)-(6-methoxyquinolin-4-yl)((2S,4S,8R)-8-vinylquinuclidin-2-yl)methanol]
[1]; wild type male C57BL6 mice, AlN diet with 0.01% quinine, 12 weeks, NMR
  mean fat mass at the end of the trial: 7.9675 g
[1]; wild type male C57BL6 mice, AlN diet with 0.01% quinine, 12 weeks, vs control diet
  Body weight gain: not different from control
[1]; wild type male C57BL6 mice, AlN diet with 0.1% quinine, 12 weeks, NMR, p<0.01 compared to control
  mean fat mass at the end of the trial: 5.524 g
[1]; wild type male C57BL6 mice, AlN diet with 0.1% quinine, 12 weeks, vs control diet (p<0.01)
  Body weight gain: gained less weight; also recorded: significantly lower
[1]; wild type male C57BL6 mice, diet with 0.1% or 0.01% quinine vs control diet, 12 weeks, NMR
  lean mass: no difference between groups
[1]; wild type male C57BL6 mice, diet with 0.1% or 0.01% quinine vs control diet, over 12 weeks
  Total food intake: food intake was not different between the groups; also recorded: no difference in food intake between groups
[1]; wild type mice, 0.1% quinine supplemented diet, 12 weeks
  fat mass gain vs control diet: gained less weight and fat mass
Trpm5
  inhibition of Trpm5: inhibitor of Trpm5
